Assays:
Type in all cases: in vivo
[1] = tested on: Nilaparvata lugens; test: Nilaparvata lugens seedling dip method (paddy seedlings); conditions: third instar nymphs, 72 h after release, dead and moribund combined, compared to untreated control, read-out: Percent mortality
Description: Seedling dip method was used for screening, wherein the required quantity of the test compounds were weighed and dissolved in surfactant solution, kept on a Vortex at 2000 rpm with zirconia beads for 90 min for proper mixing, then diluted with 0.01% Triton-X solution to the desired test concentration. Paddy seedlings were dipped in the solution for 10 seconds, shade dried for 20 min and then transferred into glass tubes with the roots kept in water. Known numbers of third instar nymphs were released into the test tubes and the tubes were kept in the plant growth chamber at a temperature of 25° C. and relative humidity of 75%. Observations on dead, moribund and living nymphs were recorded at 72 h after the release. Percent mortality was calculated by combining dead and moribund nymphs and comparing the result to the one of the untreated control.

[2] = tested on: Plutella xylostella; test: Plutella xylostella leaf dip method (cabbage leaves); conditions: foliar, second instar larvae, 72 h after release, dead and moribund combined, compared to untreated control, read-out: Percent mortality
[3] = tested on: Spodoptera litura; test: Spodoptera litura diet incorporation method; conditions: third instar larvae, 96 h after release, dead and moribund combined, compared to untreated control, read-out: Percent mortality
Description: Diet incorporation method was used, in which the required quantity of test compounds were weighed and dissolved in surfactant solution, kept on vortex for 90 min for proper mixing, then diluted with water to the desired test concentrations. The solutions were incorporated into semi-synthetic diet when the temperature reached approximately 50° C. in the bioassay containers. The diet and solution was stirred thoroughly for properly mixing and was left to cool for 30 min. The solidified diet was cut into equal pieces, and then each piece was transferred into one cell of the bio-assay trays. A single starved third instar larva was released into each of these cells of the bioassay trays and the tray was covered with a lid. The bio-assay trays were kept under laboratory conditions at a temperature of 25° C. and relative humidity of 70%. Observations on dead, moribund and alive larvae were recorded at 96 h after the release of the larvae. Percent mortality was calculated by combining dead and moribund larvae and comparing the result to the one of the untreated control.

Measured: mortality at 300 ppm

CCS(=O)(=O)c1nn2cc(-c3ccc(Cl)cc3)cnc2c1-c1nc2cc(C(F)(F)F)cnc2n1C [Compound 63, 2-(6-(4-Chlorophenyl)-2-(ethylsulfonyl)pyrazolo[1,5-a]pyrimidin-3-yl)-3-methyl-6-(trifluoromethyl)-3H-imidazo[4,5-b]pyridine]
> 70%: all assays above
